In patent US20160333419A1, “GENE SIGNATURES ASSOCIATED WITH SENSITIVITY TO MDM2 INHIBITORS” (DAIICHI SANKYO COMPANY, LIMITED, priority 2014, published 2016):

Key:
Experiment in all cases: OncoPanel cytotoxicity assay
Assay type in all cases: cell-based
HUH-6 Clone 5 = conditions: Homo sapiens, HUH-6-clone5, 72 hour incubation
Method in brief: (§1)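 Cells grown in RPMI 1640 with 10% FBS (or a special medium) at 37° C, 5% CO2 were treated 24 hours after seeding for 72 hours with 10 concentrations (3.16-fold dilutions, 0.1% DMSO final). Nuclei were dye-stained and imaged; IC50 was fit from percent of control relative cell count.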

SW962 = conditions: Homo sapiens, SW 962, 72 hour incubation
Method in brief: as §1

BPH1 = conditions: Homo sapiens, BPH-1, 72 hour incubation
Method in brief: as §1

NCI-H747 = conditions: Homo sapiens, 72 hour incubation
Method in brief: as §1

SW1417 = conditions: Homo sapiens, 72 hour incubation
Method in brief: as §1

MDA MB 231 = conditions: Homo sapiens, 72 hour incubation
Method in brief: as §1

SW954 = conditions: Homo sapiens, SW 954, 72 hour incubation
Method in brief: as §1

MDA-MB-436 = conditions: Homo sapiens, 72 hour incubation
Method in brief: as §1

HT-3 = conditions: Homo sapiens, 72 hour incubation
Method in brief: as §1

J82 = conditions: Homo sapiens, 72 hour incubation
Method in brief: as §1

HT-1080 = conditions: Homo sapiens, 72 hour incubation
Method in brief: as §1

HEL-92-1-7 = conditions: Homo sapiens, HEL 92.1.7, 72 hour incubation
Method in brief: as §1

TCCSUP = conditions: Homo sapiens, TCC-SUP, 72 hour incubation
Method in brief: as §1

A549 = conditions: Homo sapiens, 72 hour incubation
Method in brief: as §1

HuCCT1 = conditions: Homo sapiens, HuCCT-1, 72 hour incubation
Method in brief: as §1

HLE = conditions: Homo sapiens, 72 hour incubation
Method in brief: as §1

A101D = conditions: Homo sapiens, 72 hour incubation
Method in brief: as §1

SW1088 = conditions: Homo sapiens, 72 hour incubation
Method in brief: as §1

MT-3 = conditions: Homo sapiens, 72 hour incubation
Method in brief: as §1

HS 746T = conditions: Homo sapiens, Hs746T, 72 hour incubation
Method in brief: as §1

MES-SA = conditions: Homo sapiens, 72 hour incubation
Method in brief: as §1

BE(2)C = conditions: Homo sapiens, 72 hour incubation
Method in brief: as §1

SW872 = conditions: Homo sapiens, 72 hour incubation
Method in brief: as §1

Hs 766T = conditions: Homo sapiens, Hs766T, 72 hour incubation
Method in brief: as §1

C32TG = conditions: Homo sapiens, 72 hour incubation
Method in brief: as §1

H4 = conditions: Homo sapiens, 72 hour incubation
Method in brief: as §1

CEM-C1 = conditions: Homo sapiens, 72 hour incubation
Method in brief: as §1

D283 Med = conditions: Homo sapiens, 72 hour incubation
Method in brief: as §1

KHOS-240S = conditions: Homo sapiens, 72 hour incubation
Method in brief: as §1

KLE = conditions: Homo sapiens, 72 hour incubation
Method in brief: as §1

HCT-15 = conditions: Homo sapiens, 72 hour incubation
Method in brief: as §1

KATO III = conditions: Homo sapiens, 72 hour incubation
Method in brief: as §1

Caki-1 = conditions: Homo sapiens, 72 hour incubation
Method in brief: as §1

CFPAC-1 = conditions: Homo sapiens, 72 hour incubation
Method in brief: as §1

HEC-1-A = conditions: Homo sapiens, 72 hour incubation
Method in brief: as §1

Raji = conditions: Homo sapiens, 72 hour incubation
Method in brief: as §1

HT-29 = conditions: Homo sapiens, 72 hour incubation
Method in brief: as §1

SW1463 = conditions: Homo sapiens, 72 hour incubation
Method in brief: as §1

With CC[C@@H]1CNC2(CC2)CN1C(=O)[C@@H]1C[C@@H](F)CN1C(=O)C1=C(C(C)C)N2C(=N[C@@](C)(c3ccc(Cl)nc3)[C@H]2c2ccc(Cl)c(F)c2)S1 [Compound A, [(5R,6S)-5-(4-Chloro-3-fluorophenyl)-6-(6-chloropyridin-3-yl)-6-methyl-3-(propan-2-yl)-5,6-dihydroimidazo[2,1-b][1,3]thiazol-2-yl][(2S,4R)-2-{[(6R)-6-ethyl-4,7-diazaspiro[2.5]oct-7-yl]carbonyl}-4-fluoropyrrolidin-1-yl]methanone] as the compound, how does the IC50 (HUH-6 Clone 5) read?
Its IC50 is 0.329 µM.

And the IC50 (SW962)?
Its IC50 is > 40 µM.

And the IC50 (BPH1)?
The IC50 was > 40 µM.

And the IC50 (NCI-H747)?
The IC50 was > 40 µM.

What about the IC50 (SW1417) of the same compound?
The IC50 was > 40 µM.

And the IC50 (MDA MB 231)?
The IC50 was > 40 µM.

What about the IC50 (SW954) of the same compound?
Its IC50 is > 40 µM.

What about the IC50 (MDA-MB-436) of the same compound?
Its IC50 is > 40 µM.

And the IC50 (HT-3)?
The IC50 was > 40 µM.

What about the IC50 (J82) of the same compound?
The IC50 was > 40 µM.

What about the IC50 (HT-1080) of the same compound?
The IC50 was 0.282 µM.

What about the IC50 (HEL-92-1-7) of the same compound?
The IC50 was > 40 µM.

What about the IC50 (TCCSUP) of the same compound?
The IC50 was > 40 µM.

What about the IC50 (A549) of the same compound?
The IC50 was 0.401 µM.

What about the IC50 (HuCCT1) of the same compound?
The IC50 was > 40 µM.

What about the IC50 (HLE) of the same compound?
The IC50 was 28.9 µM.

What about the IC50 (A101D) of the same compound?
The IC50 was 0.233 µM.

And the IC50 (SW1088)?
The IC50 was > 40 µM.

What about the IC50 (MT-3) of the same compound?
The IC50 was 1.13 µM.

And the IC50 (HS 746T)?
Its IC50 is 38.9 µM.

What about the IC50 (MES-SA) of the same compound?
Its IC50 is 0.529 µM.

What about the IC50 (BE(2)C) of the same compound?
Its IC50 is 35.3 µM.

And the IC50 (SW872)?
The IC50 was > 40 µM.

And the IC50 (Hs 766T)?
Its IC50 is > 40 µM.

And the IC50 (C32TG)?
The IC50 was 0.36 µM.

And the IC50 (H4)?
The IC50 was 0.172 µM.

What about the IC50 (CEM-C1) of the same compound?
The IC50 was 33.6 µM.

What about the IC50 (D283 Med) of the same compound?
The IC50 was 0.529 µM.

And the IC50 (KHOS-240S)?
The IC50 was > 40 µM.

What about the IC50 (KLE) of the same compound?
The IC50 was > 40 µM.

What about the IC50 (HCT-15) of the same compound?
The IC50 was 32 µM.

What about the IC50 (KATO III) of the same compound?
The IC50 was 36.6 µM.

What about the IC50 (Caki-1) of the same compound?
The IC50 was 0.275 µM.

And the IC50 (CFPAC-1)?
Its IC50 is > 40 µM.

And the IC50 (HEC-1-A)?
Its IC50 is > 40 µM.

What about the IC50 (Raji) of the same compound?
The IC50 was 13.8 µM.

What about the IC50 (HT-29) of the same compound?
Its IC50 is 33.5 µM.

What about the IC50 (SW1463) of the same compound?
Its IC50 is > 40 µM.

What does the source list for CC1(C)CCC2(CC1)N[C@@H](C(=O)N[C@@H]1CC[C@@H](C(N)=O)OC1)[C@H](c1ccnc(Cl)c1F)[C@]21C(=O)Nc2cc(Cl)ccc21 [Compound B, (3′R,4′S,5′R)—N-[(3R,6S)-6-carbamoyltetrahydro-2H-pyran-3-yl]-6″-chloro-4′-(2-chloro-3-fluoropyridin-4-yl)-4,4-dimethyl-2″-oxo-1″,2″-dihydrodispiro[cyclohexane-1,2′-pyrrolidine-3′,3″-indole]-5′-carboxamide]?
IC50 (HUH-6 Clone 5): 0.0719 µM; IC50 (SW962): > 10 µM; IC50 (BPH1): > 10 µM; IC50 (NCI-H747): > 10 µM; IC50 (SW1417): > 10 µM; IC50 (MDA MB 231): > 10 µM; IC50 (SW954): 8.33 µM; IC50 (MDA-MB-436): > 10 µM; IC50 (HT-3): > 10 µM; IC50 (J82): > 10 µM; IC50 (HT-1080): 0.062 µM; IC50 (HEL-92-1-7): > 10 µM; IC50 (TCCSUP): > 10 µM; IC50 (A549): 0.0769 µM; IC50 (HuCCT1): > 10 µM; IC50 (HLE): > 10 µM; IC50 (A101D): 0.0314 µM; IC50 (SW1088): 9.02 µM; IC50 (MT-3): 0.164 µM; IC50 (HS 746T): 5.85 µM; IC50 (MES-SA): 0.0641 µM; IC50 (BE(2)C): 9.03 µM; IC50 (SW872): > 10 µM; IC50 (Hs 766T): > 10 µM; IC50 (C32TG): 0.0329 µM; IC50 (H4): 0.024 µM; IC50 (CEM-C1): 9.37 µM; IC50 (D283 Med): 0.0819 µM; IC50 (KHOS-240S): > 10 µM; IC50 (KLE): > 10 µM; IC50 (HCT-15): > 10 µM; IC50 (KATO III): > 10 µM; IC50 (Caki-1): 0.0387 µM; IC50 (CFPAC-1): > 10 µM; IC50 (HEC-1-A): > 10 µM; IC50 (Raji): 5.32 µM; IC50 (HT-29): 5.14 µM; IC50 (SW1463): > 10 µM
